Here are results for two molecules from patent US20110201569A1, “Methods For Treating Myocardial Disorders” (priority 2009, published 2011).

Assay type in all cases: in vivo, mouse
The test system of one assay is TNF-α. The assay can be described thus: qRT-PCR of TNF-α mRNA in left ventricle after TAC/sham. Conditions: Example 1, TAC, three days after surgery, M ± SEM. The protocol:
(§1) 11 to 13 week old male C57BL/6 mice were purchased from Charles River (Germany). Mice were housed in individually ventilated pathogen-free cages with free access to water and standard rodent chow. The animals were handled according to the principles of laboratory animal care (NIH publication No. 85-23, revised 1996), and animal procedures were approved by the local committee for animal care.
(§2) The first injection was performed 5 min prior to TAC or sham-operation procedure (described below) and repeated 4, 8, 12, 24, 36, 48 and 60 hrs after surgery. […]
(§3) Quantitative real-time PCR analysis was completed. […] RNA was dissolved in 100 μl of RNase-free water, and concentration was determined photometrically (absorbance at 260 nm) before storage at −80° C. […]
(§4) Real-time PCR was performed according to the manufacturer's protocol. […] Each sample was measured in triplicate wells and underwent 40 cycles of amplification on an ABI PRISM® Sequence Detection System (Applied Biosystems). CT values were determined with SDS Software 2.2 (Applied Biosystems) and relative quotients (RQ) were calculated following the ΔΔCT method (RQ target gene/GAPDH).
(§5) Statistics were calculated using Prism 4.05 (GraphPad Software Inc., CA, USA). All values are expressed as mean (M)±SEM. […]
(In general: Real-time PCR tracks product formation cycle by cycle.)

Assay [1] relates to total matrix metalloproteinase (MMP-2+MMP-9). The assay can be described thus: Total MMP mRNA (MMP-2+MMP-9) calculated from qRT-PCR. The conditions noted are these: Example 1; TAC vs sham within treated groups; three days after surgery. The protocol: as §1, §2, §3, §4, §5
The next assay has as its system Tristetraprolin (TTP). The assay can be described thus: qRT-PCR of TTP mRNA in left ventricle after TAC/sham. Conditions: Example 1, three days after surgery. On the procedure:
as §1, §2, §3, §4, §5

Another assay deals with TIMP-4. As to the kind of experiment: qRT-PCR of TIMP-4 mRNA in left ventricle after TAC/sham. The protocol:
as §1, §2, §3, §4, §5

Assay [2] relates to brain natriuretic peptide (BNP). As to the kind of experiment: qRT-PCR of BNP mRNA in left ventricle after TAC/sham. Conditions: Example 2; TAC treated vs TAC-placebo. The protocol: as §1, §2, §3, §4, §5
The next assay relates to IL-1β. The assay can be described thus: qRT-PCR of IL-1β mRNA in left ventricle after TAC/sham. Conditions: Example 2; TAC treated vs TAC-placebo. On the procedure:
as §1, §2, §3, §4, §5

As to `CCCCCC/C=C\CCCCCCCCCC(=O)N[C@H]1[C@H](OC[C@H]2O[C@H](OP(=O)([O-])[O-])[C@H](NC(=O)CC(=O)CCCCCCCCCCC)[C@@H](OCCCCCCCCCC)[C@@H]2O)O[C@H](COC)[C@@H](OP(=O)([O-])[O-])[C@@H]1OCC[C@@H](CCCCCCC)OC.[Na+].[Na+].[Na+].[Na+]` [Eritoran tetrasodium], in the assay with TNF-α, the “TNF mRNA level” value is recorded as 1.32±0.19. The “total MMP mRNA level (MMP-2+MMP-9)” value in assay [1] was “remained unchanged by aortic banding”. Besides, the values for the TTP/TNFα ratio in the assay with Tristetraprolin (TTP) (TAC) and in the assay on Tristetraprolin (TTP) (sham operation) were 0.61±0.33 and 1.40±0.33, respectively. In addition, the “TIMP-4 mRNA expression” value with TIMP-4 (Example 1, sham and TAC groups, three days after surgery) was “no significant differences between groups”.

For the molecule `CCCCCC/C=C\CCCCCCCCCC(=O)N[C@H]1[C@H](OC[C@H]2O[C@H](OP(=O)(O)O)[C@H](NC(=O)CC(=O)CCCCCCCCCCC)[C@@H](OCCCCCCCCCC)[C@@H]2O)O[C@H](COC)[C@@H](OP(=O)(O)O)[C@@H]1OCC[C@@H](CCCCCCC)OC` [compound of formula (I), α-D-Glucopyranose, 3-O-decyl-2-deoxy-6-O-[2-deoxy-3-O-[(3R)-3-methoxydecyl)-6-O-methyl-2-[[(−11Z)-1-oxo-11-octadecenyl)amino]-4-O-phosphono-β-D-glucopyranosyl]-2-[(1,3-dioxotetradecyl)amino]-1-(dihydrogen phosphate)], in assay [2], the “BNP mRNA expression” value is “elevated in TAC-placebo mice compared to sham and the TAC groups treated”. Also, the “IL-1β mRNA expression” value with IL-1β is on record as “lower”. For the same molecule, the “TIMP-4 mRNA expression” value with TIMP-4 (Example 2, TAC treated vs TAC-placebo) is given as “higher”.
